# Experimental data: ChEMBL document CHEMBL3877319, “Synthesis of Ofornine mimics from natural product l-vasicine as anti-hypertensive agents” (Bioorg Med Chem, 2017)
# Assays:
# Type in all cases: functional
# Rattus norvegicus [1] = assay: Anti-hypertensive activity in Wistar rat assessed as systolic blood pressure at 10 mg/kg, iv after 5 mins (reference value: 110 to 124.6 mmHg)
# Rattus norvegicus [2] = assay: Anti-hypertensive activity in Wistar rat assessed as diastolic blood pressure at 10 mg/kg, iv after 5 mins (reference value: 77.15 to 94.4 mmHg)
# Rattus norvegicus [3] = assay: Anti-hypertensive activity in Wistar rat assessed as systolic blood pressure at 10 mg/kg, iv after 15 mins (reference value: 110 to 124.6 mmHg)
# Rattus norvegicus [4] = assay: Anti-hypertensive activity in Wistar rat assessed as diastolic blood pressure at 10 mg/kg, iv after 15 mins (reference value: 77.15 to 94.4 mmHg)
# Rattus norvegicus [5] = assay: Anti-hypertensive activity in Wistar rat assessed as systolic blood pressure at 10 mg/kg, iv after 30 mins (reference value: 110 to 124.6 mmHg)
# Rattus norvegicus [6] = assay: Anti-hypertensive activity in Wistar rat assessed as diastolic blood pressure at 10 mg/kg, iv after 30 mins (reference value: 77.15 to 94.4 mmHg)
# Rattus norvegicus [7] = assay: Anti-hypertensive activity in Wistar rat assessed as systolic blood pressure at 10 mg/kg, iv after 60 mins (reference value: 110 to 124.6 mmHg)
# Rattus norvegicus [8] = assay: Anti-hypertensive activity in Wistar rat assessed as diastolic blood pressure at 10 mg/kg, iv after 60 mins (reference value: 77.15 to 94.4 mmHg)
# Rattus norvegicus [9] = assay: Anti-hypertensive activity in Wistar rat assessed as systolic blood pressure at 10 mg/kg, iv after 120 mins (reference value: 110 to 124.6 mmHg)
# Rattus norvegicus [10] = assay: Anti-hypertensive activity in Wistar rat assessed as diastolic blood pressure at 10 mg/kg, iv after 120 mins (reference value: 77.15 to 94.4 mmHg)
# Rattus norvegicus [11] = assay: Anti-hypertensive activity in Wistar rat assessed as systolic blood pressure at 10 mg/kg, iv after 150 mins (reference value: 110 to 124.6 mmHg)
# Rattus norvegicus [12] = assay: Anti-hypertensive activity in Wistar rat assessed as diastolic blood pressure at 10 mg/kg, iv after 150 mins (reference value: 77.15 to 94.4 mmHg)
# Rattus norvegicus [13] = assay: Anti-hypertensive activity in Wistar rat assessed as systolic blood pressure at 10 mg/kg, iv after 180 mins (reference value: 110 to 124.6 mmHg)
# Rattus norvegicus [14] = assay: Anti-hypertensive activity in Wistar rat assessed as diastolic blood pressure at 10 mg/kg, iv after 180 mins (reference value: 77.15 to 94.4 mmHg)
SMILES,Activity (Rattus norvegicus [1]) [mmHg],Activity (Rattus norvegicus [2]) [mmHg],Activity (Rattus norvegicus [3]) [mmHg],Activity (Rattus norvegicus [4]) [mmHg],Activity (Rattus norvegicus [5]) [mmHg],Activity (Rattus norvegicus [6]) [mmHg],Activity (Rattus norvegicus [7]) [mmHg],Activity (Rattus norvegicus [8]) [mmHg],Activity (Rattus norvegicus [9]) [mmHg],Activity (Rattus norvegicus [10]) [mmHg],Activity (Rattus norvegicus [11]) [mmHg],Activity (Rattus norvegicus [12]) [mmHg],Activity (Rattus norvegicus [13]) [mmHg],Activity (Rattus norvegicus [14]) [mmHg]
O=C(c1ccccc1-n1cc(-c2ccc(F)cc2)nn1)N1CC[C@@H](O)C1,103.3,76.5,120.1,74.8,118.9,77.9,122.4,95,121.6,88,121.8,88.8,121.5,90.8
CCCc1cn([C@@H]2CCN(C(=O)c3ccccc3Nc3ccncc3)C2)nn1,82.7,44.5,86.8,53.4,118.8,78.5,114.8,83.7,118.1,82.7,119.9,81.5,118.8,84.5
CCCCCc1cn([C@@H]2CCN(C(=O)c3ccccc3Nc3ccncc3)C2)nn1,96.7,73.2,101.7,80.5,103.8,77.6,105.4,80.2,109.8,80.5,114.9,81.9,117.6,85.4
O=C(c1ccccc1Nc1ccncc1)N1CC[C@@H](n2cc(-c3ccc(F)cc3)nn2)C1,46.6,42.9,106.2,73.8,108.6,84.63,117.6,84.8,122.6,86.3,124.6,90.3,128.9,90.58
O=C(c1ccccc1Nc1ccncc1)N1CCCCC1 [OFORNINE],83.3,53.3,89.45,61,89.5,62.8,88.6,64.05,90.5,64.5,113.8,77.9,117,90.8
O=C(c1ccccc1-n1cc(C2CC2)nn1)N1CC[C@@H](O)C1,113.8,79.6,114.91,90.7,118.1,84.35,120,82.75,120.4,83.3,121.7,84.3,123.7,86.6
C[Si](C)(C)O[C@@H]1CCNC1,119.9,84.74,119.7,85.42,119.9,87.98,117.6,83.9,118.5,89.49,122.4,88.4,121.6,84.75
O[C@H]1CCN(Cc2ccccc2Nc2ccncc2)C1,120.4,77.06,119.9,73.74,120.6,75.5,115.7,81.18,118.2,75.97,122.9,76.6,124.4,83.32
O=C(c1ccccc1-n1cc(-c2ccc(-c3ccccc3)cc2)nn1)N1CC[C@@H](O)C1,112,82,113,82,106.9,79.1,110.1,86.8,107.3,87.8,116.3,81.3,109.6,78.3
[N-]=[N+]=N[C@@H]1CCN(C(=O)c2ccccc2Nc2ccncc2)C1,86.15,59.8,97,67.75,108.4,79.7,111.6,81.4,115.6,80.3,–,77.3,115.3,–
O[C@@H]1CCN(Cc2ccccc2)C1,107.9,52.65,116.4,57.86,119.3,70.89,121.4,77.25,112.3,74.19,114.6,78.62,118.9,83.15
"Nc1ccccc1C(=O)N1CCC(O)C1 (single isomer, unassigned)",107.8,80.42,123.4,86.88,124.3,82.62,119.5,82.62,118.8,79.57,121.4,79.95,123.1,86.45
CCCCCc1ccc(-c2cn([C@@H]3CCN(C(=O)c4ccccc4Nc4ccncc4)C3)nn2)cc1,86.15,59.8,97,67.75,108.4,79.7,111.6,81.4,115.6,80.3,–,77.3,115.3,–
O=C(c1ccccc1Nc1ccncc1)N1CC[C@@H](n2cc(-c3ccccc3)nn2)C1,85.3,58.7,94.3,65.5,100.7,70.2,109.8,72.2,116.2,80,120.8,80.15,121.2,86.75
CCCCCCc1ccc(-c2cn([C@@H]3CCN(C(=O)c4ccccc4Nc4ccncc4)C3)nn2)cc1,94.4,74.8,104.9,81.7,111.6,83.6,111.9,83.25,118.9,91.75,118.7,92.8,119.9,91
O=C(c1ccccc1Nc1ccncc1)N1CC[C@@H](n2cc(C3CC3)nn2)C1,116.4,77.08,115.1,79.63,112.2,76.29,108.2,73.85,111.6,86.96,110.4,85.74,117.2,86.32
